Reference: US11944616B2 (INSTITUT NATIONAL DE LA SANTE ET DE LA RECHERCHE MEDICAL …, priority 2016, dated 2024)
Where two headings read alike, the source gives them in different places.

Assays:
NMDAR = NMDAR blocking activity using patch-clamp (whole-cell voltage clamp recordings from rat hippocampal neurons); format: cell-based; conditions: currents evoked by 100 μM NMDA and 20 μM D-serine, clamped at −60 mV
[1] = In vivo brain penetration measurement (brain/plasma ratio Kp"brain") in rat; conditions: for Kp at 3.45 h: brain (without cerebellum) and plasma, male Sprague-Dawley rat, 3.45 h constant-rate intravenous infusion, 4 mg/kg, mean of 3 rats ± standard deviation, read-out: Kp"brain" (total brain/plasma concentration ratio at steady state); for CNS / BBB penetration (in words): rat, conclusion from Kp"brain" values
Method: The femoral vein of male Sprague-Dawley rats (CRL) weighing around 250 g was surgically catheterized at least 72 hours prior to the experiment. 3 animals were performed for each compound tested. The drug was administered as 3.45 h constant-rate intravenous infusion to approach steady state, using a flow rate of 0.8 mL/h, corresponding to dosage of 4 mg/kg (1.067 mg/kg/h, i.e. 1 mg/rat of ˜250 g). The vehicle used was saline.
At the end of the infusion, the rats were anesthetized by inhalation of isoflurane, and blood was collected in a heparinized tube from the abdominal aorta, followed by immediate rinsing of the bloodstream for 2 minutes with saline at a rate of 15 mL/min using a peristaltic pump and left intraventricle cannula (flowing via right atrium). The brain (without cerebellum) was removed, and transferred in a tube and homogenized in two volumes of deionized water using a tissue homogenizer (Precellys24). All samples were stored at −20° C. until analysis. Plasma and brain homogenate sample preparation was performed using solid phase extraction on OASIS® WCX (Waters) and compounds were quantified by reversed phase liquid chromatography and positive electrospray ionization and multiple reaction monitoring mass spectrometry (LC-MS/MS).
This parameter is defined as the ratio of concentrations in brain and blood, Kp“brain” (Cbrain/Cplasma) or log(BB). Log(BB) is the logarithm of the ratio of the steady-state total concentration of a compound in the brain to that in the blood/plasma, log(BB)=log(Cbrain/Cplasma). This parameter depends upon the passive diffusion characteristics, the implication of membrane transporters at the BBB level and the relative drug binding affinity differences between the plasma proteins and brain tissue.

| melting point | SMILES | also measured |
| --- | --- | --- |
| 215 to 217 °C | CC(C)CC[N@+]1(C)[C@H]2Cc3ccccc3[C@]1(C)c1ccccc12 | – |
| 214 to 217 °C | CCC[N@+]1(C)[C@H]2Cc3ccccc3[C@]1(C)c1ccccc12 | – |
| 200 to 203 °C | CCCCCC[N@+]1(C)[C@H]2Cc3ccccc3[C@]1(C)c1ccccc12 | – |
| 181 to 184 °C | CCC(C)C[N@+]1(C)[C@H]2Cc3ccccc3[C@]1(C)c1ccccc12 (stereo partly shown) | – |
| 237 to 238 °C | CC[N+]1(CC)[C@H]2Cc3ccccc3[C@]1(C)c1ccccc12 | – |
| 220 to 222 °C | C[C@@]12c3ccccc3C[C@@H](c3ccccc31)[N@@+]2(C)CC1CCCCC1 | – |
| 220 to 222 °C | C[C@@]12c3ccccc3C[C@@H](c3ccccc31)[N@@+]2(C)Cc1ccccc1 | – |
| 159 to 162 °C | C[C@@]12c3ccccc3C[C@@H](c3ccccc31)[N@@+]2(C)CC1CCC1 | – |
| 174 to 176 °C | C[C@@]12c3ccccc3C[C@@H](c3ccccc31)[N@@+]2(C)CC1(c2ccccc2)CC1 | – |
| 134 to 136 °C | Cc1ccc(C[N@+]2(C)[C@H]3Cc4ccccc4[C@]2(C)c2ccccc23)cc1 | – |
| 152 to 154 °C | CC(C)(C)c1ccc(C[N@+]2(C)[C@H]3Cc4ccccc4[C@]2(C)c2ccccc23)cc1 | – |
| 101 to 103 °C | COc1ccc(C[N@+]2(C)[C@H]3Cc4ccccc4[C@]2(C)c2ccccc23)cc1 | – |
| 160 to 162 °C | C[C@@]12c3ccccc3C[C@@H](c3ccccc31)[N@@+]2(C)Cc1ccc(Cl)cc1 | – |
| 129 to 131 °C | C[C@@]12c3ccccc3C[C@@H](c3ccccc31)[N@@+]2(C)Cc1ccccc1Cl | – |
| 101 to 103 °C | Cc1ccccc1C[N@+]1(C)[C@H]2Cc3ccccc3[C@]1(C)c1ccccc12 | – |
| 216 to 219 °C | C[C@@]12c3ccccc3C[C@@H](c3ccccc31)[N@@+]2(C)CCO | – |
| 147 to 149 °C | C[C@@]12c3ccccc3C[C@@H](c3ccccc31)[N@@+]2(C)CC#N | – |
| 216 to 218 °C | CC(=O)NCC[N@+]1(C)[C@H]2Cc3ccccc3[C@]1(C)c1ccccc12 | – |

| melting point | SMILES | also measured |
| --- | --- | --- |
| 162 to 164 °C | C[C@@]12c3ccccc3C[C@@H](c3ccccc31)[N@@+]2(C)CC1(c2ccc(Cl)cc2)CC1 | – |
| 180 to 181 °C | CC[N@@+]1(CC2CC2)[C@@H]2Cc3ccccc3[C@@]1(C)c1ccccc12 | – |
| 218 to 219 °C | CC[N+]1(CC)[C@@H]2Cc3ccccc3[C@@]1(C)c1ccccc12 | – |
| 203 to 204 °C | CCC[N@@+]1(CC2CC2)[C@@H]2Cc3ccccc3[C@@]1(C)c1ccccc12 | – |
| 171 to 172 °C | CCCC[N@@+]1(CC2CC2)[C@@H]2Cc3ccccc3[C@@]1(C)c1ccccc12 | – |
| 221 to 222 °C | CCC[N@@+]1(CCO)[C@@H]2Cc3ccccc3[C@@]1(C)c1ccccc12 | – |
| 196 to 197 °C | CCCC[N@@+]1(CCO)[C@@H]2Cc3ccccc3[C@@]1(C)c1ccccc12 | – |
| 201 to 202 °C | CC[N@@+]1(CCCCO)[C@@H]2Cc3ccccc3[C@@]1(C)c1ccccc12 | – |
| 179 to 180 °C | C[C@]12c3ccccc3C[C@H](c3ccccc31)[N@@+]2(CCO)CC1CC1 | – |
| 168 to 169 °C | C#CC[N@@+]1(CC2CC2)[C@@H]2Cc3ccccc3[C@@]1(C)c1ccccc12 | – |
| 201 to 202 °C | C#CC[N@@+]1(CCO)[C@@H]2Cc3ccccc3[C@@]1(C)c1ccccc12 | – |
| 131 to 132 °C | C=CC[N@@+]1(CC2CC2)[C@@H]2Cc3ccccc3[C@@]1(C)c1ccccc12 | – |
| 196 to 197 °C | C=CC[N@@+]1(CCO)[C@@H]2Cc3ccccc3[C@@]1(C)c1ccccc12 | – |
| 162 to 163 °C | COCC[N@+]1(C)[C@@H]2Cc3ccccc3[C@@]1(C)c1ccccc12 | – |
| 189 to 192 °C | C[C@@]12c3ccccc3C[C@@H](c3ccccc31)[N@@+]2(C)CC(N)=O | – |
| 92 to 94 °C | C[C@@]12c3ccccc3C[C@@H](c3ccccc31)[N@@+]2(C)Cc1ccc(F)cc1 | – |
| 167 to 170 °C | C[C@@]12c3ccccc3C[C@@H](c3ccccc31)[N@@+]2(C)Cc1cccc(C(F)(F)F)c1 | – |

| SMILES | melting point | also measured |
| --- | --- | --- |
| CC[N@@+]1(CCO)[C@H]2Cc3ccccc3[C@]1(C)c1ccccc12 (racemic) [Compound No 27] | 205 to 208 °C | IC50 (NMDAR; read-out: IC50): 360 nM |
| C[C@@]12c3ccccc3C[C@@H](c3ccccc31)[N+]2(C)C [Compound No 1] | 270 to 280 °C | Kp at 3.45 h [1]: 0.3 ± 0.03; CNS / BBB penetration (in words) [1]: do not penetrate the CNS; IC50 (NMDAR; read-out: IC50): 650 nM |
| CC[N@+]1(C)[C@H]2Cc3ccccc3[C@]1(C)c1ccccc12 [Compound No 2] | 230 to 232 °C | IC50 (NMDAR): 570 nM |
| CCCC[N@+]1(C)[C@H]2Cc3ccccc3[C@]1(C)c1ccccc12 [Compound No 3] | 200 to 203 °C | IC50 (NMDAR): 500 nM |
| CC(C)C[N@+]1(C)[C@H]2Cc3ccccc3[C@]1(C)c1ccccc12 [Compound No 4] | 216 to 217 °C | IC50 (NMDAR): 820 nM |
| C[C@@]12c3ccccc3C[C@@H](c3ccccc31)[N@@+]2(C)CC1CC1 [Compound No 5] | 103 to 105 °C | IC50 (NMDAR): 400 nM |
| C[C@@]12c3ccccc3C[C@@H](c3ccccc31)[N@@+]2(C)CC1CCCC1 [Compound No 6] | 125 to 127 °C | IC50 (NMDAR): 1100 nM |
| CC[N@@+]1(CCO)[C@H]2Cc3ccccc3[C@]1(C)c1ccccc12 [Compound No 26] | 202 to 205 °C | Kp at 3.45 h [1]: 0.4 ± 0.08; CNS / BBB penetration (in words) [1]: do not penetrate the CNS; IC50 (NMDAR; read-out: IC50): 400 nM |
| CC[N@@+]1(CC2CC2)[C@H]2Cc3ccccc3[C@]1(C)c1ccccc12 [Compound No 31] | 189 to 191 °C | IC50 (NMDAR; read-out: IC50): 270 nM |
| CC[N@@+]1(CCO)[C@H]2Cc3ccccc3[C@]1(C)c1ccccc12 [Compound No 32] | 115 to 120 °C | – |
